Values quoted from earlier work in US11241426B2, “Aqueous composition for ophthalmic or nasal administration” (NITTO MEDIC CO., LTD., priority 2017, dated 2022).

Target: human H1 receptor (Homo sapiens, UniProt P35367)
Sequence (P35367 whole entry): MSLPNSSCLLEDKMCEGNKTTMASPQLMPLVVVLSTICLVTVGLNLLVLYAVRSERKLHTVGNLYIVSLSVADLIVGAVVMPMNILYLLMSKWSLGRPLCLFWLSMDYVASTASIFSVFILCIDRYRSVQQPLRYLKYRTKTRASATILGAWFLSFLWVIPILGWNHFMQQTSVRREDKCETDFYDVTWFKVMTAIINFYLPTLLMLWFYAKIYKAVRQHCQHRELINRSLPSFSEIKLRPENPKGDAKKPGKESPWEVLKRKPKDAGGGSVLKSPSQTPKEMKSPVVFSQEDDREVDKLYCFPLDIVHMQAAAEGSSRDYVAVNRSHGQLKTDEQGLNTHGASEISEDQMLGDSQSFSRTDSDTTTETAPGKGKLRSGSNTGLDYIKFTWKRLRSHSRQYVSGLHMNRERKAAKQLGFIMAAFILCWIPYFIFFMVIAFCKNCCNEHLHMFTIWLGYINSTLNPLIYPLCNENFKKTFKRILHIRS

affinity for the human H1 receptor, fold higher than that of cetirizine (relative to cetirizine): about 2 fold | affinity for the human H1 receptor, fold higher than that of the S-enantiomer, dextrocetirizine (relative to dextrocetirizine): about 30 fold
SMILES: O=C(O)COCCN1CCN([C@H](c2ccccc2)c2ccc(Cl)cc2)CC1 [Levocetirizine]
